Measured values: patent US10766902B2, “Wee-1 inhibiting pyrazolopyrimidinone compounds” (ALMAC DISCOVERY LIMITED, priority 2016, dated 2020)

molecular target: Wee-1 kinase (Homo sapiens (Human), UniProt P30291); test: Measurement of Wee-1 kinase activity (ADP-Glo luminescence); type: biochemical; details: read-out: Wee1 IC50
Experimental: Method 1: Measurement of Wee-1 Kinase Activity
In the measurement of Wee-1 activity, a commercial peptide Poly(Lys Tyr(4:1)) hydrobromide was purchased from Sigma Aldrich and used as the substrate. Activated Wee-1 kinase was purchased from Invitrogen (PV3817) and an ADP-Glo luminescent kit was purchased from Promega.
All reactions took place in […] volumes in reaction buffer containing 40 mM Tris-HCl and 20 mM magnesium chloride, supplemented with 0.1 mg/mL bovine serum albumin and 2 mM DTT. Compounds were serially diluted in buffer and 5 μL of each concentration pipetted into a white 384 well plate (Sigma Aldrich M6186). A 5 μL aliquot of the Wee-1 enzyme was added to each well and the plate centrifuged for 1 min to ensure mixing of the enzyme and inhibitor.
The plate was incubated at room temperature for 30 minutes before the addition of 2.0 μg/mL of substrate and 30 μM ATP in a 5 μL aliquot. The plate was centrifuged for one minute and incubated for 1 h at RT.
15 μL of ADP-Glo stop reagent was added to each well to quench the reaction and deplete unconverted ATP. The plate was incubated for a further 40 min in the dark at RT.
30 μL of ADP-Glo kinase detection reagent was added to each well, converting ADP to ATP, catalysing the generation of luciferin by luciferase. The plate was shaken for 1 min, and incubated in the dark for an additional hour.
Luminescence from each well was detected using the Biotek Synergy4 HD plate reader and the percentage inhibition of kinase activity calculated for each inhibitor tested. Positive (kinase only) and negative (no kinase) controls were added to each plate to ensure specific interaction of kinase and inhibitor. The IC50 concentration for each inhibitor was calculated by plotting the percentage kinase inhibition against concentration of inhibitor and the curve generated by non-linear regression fitting.

Wee-1 kinase, sequence (P30291 whole entry): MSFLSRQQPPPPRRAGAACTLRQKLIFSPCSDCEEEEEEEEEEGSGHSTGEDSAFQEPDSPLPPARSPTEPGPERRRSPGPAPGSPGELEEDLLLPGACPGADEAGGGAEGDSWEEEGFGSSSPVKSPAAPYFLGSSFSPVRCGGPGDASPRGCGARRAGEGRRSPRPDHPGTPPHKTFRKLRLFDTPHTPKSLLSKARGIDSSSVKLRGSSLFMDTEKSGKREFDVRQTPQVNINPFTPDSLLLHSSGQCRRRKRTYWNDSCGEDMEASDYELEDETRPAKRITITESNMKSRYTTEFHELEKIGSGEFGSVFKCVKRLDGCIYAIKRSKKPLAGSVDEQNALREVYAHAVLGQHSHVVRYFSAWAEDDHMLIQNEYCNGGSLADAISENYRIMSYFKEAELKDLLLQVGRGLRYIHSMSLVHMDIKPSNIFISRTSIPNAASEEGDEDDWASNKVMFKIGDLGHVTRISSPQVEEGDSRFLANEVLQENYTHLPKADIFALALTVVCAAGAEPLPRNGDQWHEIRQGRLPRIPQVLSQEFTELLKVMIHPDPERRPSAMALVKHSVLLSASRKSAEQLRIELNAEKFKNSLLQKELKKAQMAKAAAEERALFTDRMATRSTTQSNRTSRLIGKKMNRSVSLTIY

SMILES	IC50 [nM]
C=CCn1c(=O)c2cnc(Nc3ccc(Cl)cc3)nc2n1-c1cccc(N=S(C)(C)=O)n1 [Example 62, 6-[(4-Chlorophenyl)amino]-1-(6-{[dimethyl(oxo)-λ^6-sulfanylidene]amino}pyridin-2-yl)-2-(prop-2-en-1-yl)-1H,2H,3H-pyrazolo[3,4-d]pyrimidin-3-one]	0.3
C=CCn1c(=O)c2cnc(Nc3ccc(N4CCN(C)CC4)c(CO)c3)nc2n1-c1cccc(N=S(C)(C)=O)c1 [Example 30, 1-(3-{[Dimethyl(oxo)-λ^6-sulfanylidene]amino}phenyl)-6-{[3-(hydroxymethyl)-4-(4-methylpiperazin-1-yl)phenyl]amino}-2-(prop-2-en-1-yl)-1H,2H,3H-pyrazolo[3,4-d]pyrimidin-3-one]	0.5
CCCn1c(=O)c2cnc(Nc3ccc(N4CCOCC4)cc3)nc2n1-c1cccc(N=S(C)(C)=O)n1 [Example 38, 1-(6-{[Dimethyl(oxo)-λ^6-sulfanylidene]amino}pyridin-2-yl)-6-{[4-(morpholin-4-yl)phenyl]amino}-2-propyl-1H,2H,3H-pyrazolo[3,4-d]pyrimidin-3-one]	0.8
C=CCn1c(=O)c2cnc(Nc3ccc(C4CCNCC4)cc3)nc2n1-c1cccc(N=S(C)(C)=O)n1 [Example 13, 1-(6-{[Dimethyl(oxo)-λ^6-sulfanylidene]amino}pyridine-2-yl)-6-{[4-(piperidin-4-yl)phenyl]amino}-2-(prop-2-en-1-yl)-1H,2H,3H-pyrazolo[3,4-d]pyrimidin-3-one]	1.2
C=CCn1c(=O)c2cnc(Nc3ccc(N4CCOCC4)c(CNC)c3)nc2n1-c1cccc(N=S(C)(C)=O)c1 [Example 22, 1-(3-{[Dimethyl(oxo)-λ^6-sulfanylidene]amino}phenyl)-6-({3-[(methylamino)methyl]-4-(morpholin-4-yl)phenyl}amino)-2-(prop-2-en-1-yl)-1H,2H,3H-pyrazolo[3,4-d]pyrimidin-3-one]	2.6
C=CCn1c(=O)c2cnc(Nc3ccc(N4CCN(C)CC4)cc3)nc2n1-c1cccc(N=S2(=O)CCCC2)n1 [Example 23, 2-Allyl-6-((4-(4-methylpiperazin-1-yl)phenyl)amino)-1-(6-((1-oxidotetrahydrothiophen-1-ylidene)amino)pyridin-2-yl)-1H-pyrazolo[3,4-d]pyrimidin-3(2H)-one]	0.9
C=CCn1c(=O)c2cnc(Nc3cccc(N4CCOCC4)c3)nc2n1-c1cccc(N=S(C)(C)=O)n1 [Example 35, 1-(6-{[Dimethyl(oxo)-λ^6-sulfanylidene]amino}pyridin-2-yl)-6-{[3-(morpholin-4-yl)phenyl]amino}-2-(prop-2-en-1-yl)-1H,2H,3H-pyrazolo[3,4-d]pyrimidin-3-one]	0.6
C=CCn1c(=O)c2cnc(Nc3cnn(CC(F)(F)F)c3)nc2n1-c1cccc(N=S(C)(C)=O)n1 [Example 85, 1-(6-{[Dimethyl(oxo)-λ^6-sulfanylidene]amino}pyridin-2-yl)-2-(prop-2-en-1-yl)-6-{[1-(2,2,2-trifluoroethyl)-1H-pyrazol-4-yl]amino}-1H,2H,3H-pyrazolo[3,4-d]pyrimidin-3-one]	0.6
COc1ccc(Nc2ncc3c(=O)n(C(C)C)n(-c4cccc(N=S(C)(C)=O)n4)c3n2)cc1 [Example 42, 1-(6-{[Dimethyl(oxo)-λ^6-sulfanylidene]amino}pyridin-2-yl)-6-[(4-methoxyphenyl)amino]-2-(propan-2-yl)-1H,2H,3H-pyrazolo[3,4-d]pyrimidin-3-one]	1.1
C=CCn1c(=O)c2cnc(Nc3ccc(N4CCN[C@H](C)C4)cc3)nc2n1-c1cccc(N=S(C)(C)=O)n1 [Example 9, 1-(6-{[Dimethyl(oxo)-λ^6-sulfanylidene]amino}pyridine-2-yl)-6-({4-[(3R)-3-methylpiperazin-1-yl]phenyl}amino)-2-(prop-2-en-1-yl)-1H,2H,3H-pyrazolo[3,4-d]pyrimidin-3-one]	1.5
C=CCn1c(=O)c2cnc(Nc3ccc(N4CCOCC4)cc3)nc2n1-c1cccc(CN=S(C)(C)=O)n1 [Example 91, 1-[6-({[Dimethyl(oxo)-λ^6-sulfanylidene]amino}methyl)pyridin-2-yl]-6-{[4-(morpholin-4-yl)phenyl]amino}-2-(prop-2-en-1-yl)-1H,2H,3H-pyrazolo[3,4-d]pyrimidin-3-one]	22.1
C=CCn1c(=O)c2cnc(Nc3ccc(N(C)C)c(C(O)C(F)(F)F)c3)nc2n1-c1cccc(N=S(C)(C)=O)n1 (racemic) [Example 83, rac-1-(6-{[Dimethyl(oxo)-λ^6-sulfanylidene]amino}pyridin-2-yl)-6-{[4-(dimethylamino)-3-(2,2,2-trifluoro-1-hydroxyethyl)phenyl]amino}-2-(prop-2-en-1-yl)-1H,2H,3H-pyrazolo[3,4-d]pyrimidin-3-one]	0.4
C=CCn1c(=O)c2cnc(Nc3ccc(N4CCOCC4)cc3)nc2n1-c1cccc(N=S(C)(C)=O)c1 [Example 31, 1-(3-{[Dimethyl(oxo)-λ^6-sulfanylidene]amino}phenyl)-6-{[4-(morpholin-4-yl)phenyl]amino}-2-(prop-2-en-1-yl)-1H,2H,3H-pyrazolo[3,4-d]pyrimidin-3-one]	1.4
CC(C)n1c(=O)c2cnc(Nc3ccc(F)cc3F)nc2n1-c1cccc(N=S(C)(C)=O)n1 [Example 65, 6-[(2,4-Difluorophenyl)amino]-1-(6-{[dimethyl(oxo)-λ^6-sulfanylidene]amino}pyridin-2-yl)-2-(propan-2-yl)-1H,2H,3H-pyrazolo[3,4-d]pyrimidin-3-one]	68
C=CCn1c(=O)c2cnc(Nc3ccc(C(F)(F)F)nc3)nc2n1-c1cccc(N=S(C)(C)=O)n1 [Example 81, 1-(6-{[Dimethyl(oxo)-λ^6-sulfanylidene]amino}pyridin-2-yl)-2-(prop-2-en-1-yl)-6-{[6-(trifluoromethyl)pyridin-3-yl]amino}-1H,2H,3H-pyrazolo[3,4-d]pyrimidin-3-one]	1.3
C=CCn1c(=O)c2cnc(Nc3ccc(N4CCNCC4)cc3)nc2n1-c1cccc(N=S(C)(C)=O)n1 [Example 6, 1-(6-{[Dimethyl(oxo)-λ^6-sulfanylidene]amino}pyridine-2-yl)-6-{[4-(piperazin-1-yl)phenyl]amino}-2-(prop-2-en-1-yl)-1H,2H,3H-pyrazolo[3,4-d]pyrimidin-3-one]	1.8
CC(C)n1c(=O)c2cnc(Nc3ccc(N4CCNC(=O)C4)cc3)nc2n1-c1cccc(N=S(C)(C)=O)n1 [Example 48, 4-(4-{[1-(6-{[Dimethyl(oxo)-λ^6-sulfanylidene]amino}pyridin-2-yl)-3-oxo-2-(propan-2-yl)-1H,2H,3H-pyrazolo[3,4-d]pyrimidin-6-yl]amino}phenyl)piperazin-2-one]	0.9
CC(C)n1c(=O)c2cnc(Nc3ccc(F)cc3)nc2n1-c1cccc(N=S(C)(C)=O)n1 [Example 41, 1-(6-{[Dimethyl(oxo)-λ^6-sulfanylidene]amino}pyridin-2-yl)-6-[(4-fluorophenyl)amino]-2-(propan-2-yl)-1H,2H,3H-pyrazolo[3,4-d]pyrimidin-3-one]	4.9
CCCn1c(=O)c2cnc(Nc3ccc(N4CCOCC4)nc3)nc2n1-c1cccc(N=S(C)(C)=O)n1 [Example 39, 1-(6-{[Dimethyl(oxo)-λ^6-sulfanylidene]amino}pyridin-2-yl)-6-{[6-(morpholin-4-yl)pyridin-3-yl]amino}-2-propyl-1H,2H,3H-pyrazolo[3,4-d]pyrimidin-3-one]	1.7
C=CCn1c(=O)c2cnc(Nc3ccc(N4CCNCC4)c(CO)c3)nc2n1-c1cccc(N=S(C)(C)=O)c1 [Example 29, 1-(3-{[Dimethyl(oxo)-λ^6-sulfanylidene]amino}phenyl)-6-{[3-(hydroxymethyl)-4-(piperazin-1-yl)phenyl]amino}-2-(prop-2-en-1-yl)-1H,2H,3H-pyrazolo[3,4-d]pyrimidin-3-one]	0.9
CC(C)n1c(=O)c2cnc(Nc3ccc(F)cc3)nc2n1-c1cccc(N=S2(=O)CCCC2)n1 [Example 55, 6-[(4-Fluorophenyl)amino]-1-{6-[(1-oxo-1λ^6-thiolan-1-ylidene)amino]pyridin-2-yl}-2-(propan-2-yl)-1H,2H,3H-pyrazolo[3,4-d]pyrimidin-3-one]	13.3
C=CCn1c(=O)c2cnc(Nc3cnn(C4CCCCC4)c3)nc2n1-c1cccc(N=S(C)(C)=O)n1 [Example 96, 2-Allyl-6-((1-cyclohexyl-1H-pyrazol-4-yl)amino)-1-(6-((dimethyl(oxo)-λ^6-sulfaneylidene)amino)pyridin-2-yl)-1,2-dihydro-3H-pyrazolo[3,4-d]pyrimidin-3-one]	0.4
C=CCn1c(=O)c2cnc(Nc3ccc(N4CCOCC4)cc3)nc2n1-c1cncc(N=S(C)(C)=O)c1 [Example 44, 1-(5-{[Dimethyl(oxo)-λ^6-sulfanylidene]amino}pyridin-3-yl)-6-{[4-(morpholin-4-yl)phenyl]amino}-2-(prop-2-en-1-yl)-1H,2H,3H-pyrazolo[3,4-d]pyrimidin-3-one]	20.3
CS(C)(=O)=Nc1cccc(-n2c3nc(Nc4ccc(N5CCOCC5)cc4)ncc3c(=O)n2CC2CC2)n1 [Example 92, 2-(Cyclopropylmethyl)-1-(6-{[dimethyl(oxo)-λ^6-sulfanylidene]amino}pyridin-2-yl)-6-{[4-(morpholin-4-yl)phenyl]amino}-1H,2H,3H-pyrazolo[3,4-d]pyrimidin-3-one]	8.8
